test system: mice; assay: Neuropharmacological assay (SmartCube), behavioral signature of compound-treated mice; format: in vivo; settings: i.p. 15 min before behavioral test, most efficacious dose(s) of 3 doses
How it was run: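 Read-out is an automated video-based behavioral signature, scored as per-class probabilities (e.g., anxiolytic, antidepressant) against reference compounds. Dosing was i.p. at three doses, 15 min pre-test, in NMP, polyethylene glycol and propylene glycol. Values shown are from the most efficacious dose(s).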

| SMILES | AD: ADHD (probability that behavioral signature matches class) | AG: analgesic (probability that behavioral signature matches class) | AX: anxiolytic (probability that behavioral signature matches class) | CE: cognitive enhancer (probability that behavioral signature matches class) | DP: anti-depressant (probability that behavioral signature matches class) | HA: hallucinogen (probability that behavioral signature matches class) | MS: mood stabilizer (probability that behavioral signature matches class) | PS: anti-psychotic (probability that behavioral signature matches class) | SD: sedative hypnotic (probability that behavioral signature matches class) | UN: uncharacterized CNS activity (probability that behavioral signature matches class) |
| --- | --- | --- | --- | --- | --- | --- | --- | --- | --- | --- |
| c1ccc2c(c1)CCCO[C@H]2[C@H]1CCCN1 [Compound I-100, (R)-2-((R)-1,3,4,5-tetrahydrobenzo[c]oxepin-1-yl)pyrrolidine] | + (LOQ ≤ + <5%) | ++ (5% ≤ ++ <25%) | ++ (5% ≤ ++ <25%) | +++ (25% ≤ +++ <50%) | ++ (5% ≤ ++ <25%) | + (LOQ ≤ + <5%) | ++ (5% ≤ ++ <25%) | +++ (25% ≤ +++ <50%) | ++ (5% ≤ ++ <25%) | + (LOQ ≤ + <5%) |
| Cc1cccc2c1[C@@H]([C@@H]1CCCN1)OCCC2 [Compound I-101, (S)-2-((S)-9-methyl-1,3,4,5-tetrahydrobenzo[c]oxepin-1-yl)pyrrolidine] | + (LOQ ≤ + <5%) | + (LOQ ≤ + <5%) | ++ (5% ≤ ++ <25%) | + (LOQ ≤ + <5%) | ++ (5% ≤ ++ <25%) | + (LOQ ≤ + <5%) | + (LOQ ≤ + <5%) | + (LOQ ≤ + <5%) | + (LOQ ≤ + <5%) | + (LOQ ≤ + <5%) |
| Cc1cccc2c1[C@H]([C@@H]1CCCN1)OCCC2 [Compound I-102, (S)-2-((R)-9-methyl-1,3,4,5-tetrahydrobenzo[c]oxepin-1-yl)pyrrolidine] | + (LOQ ≤ + <5%) | ++ (5% ≤ ++ <25%) | +++ (25% ≤ +++ <50%) | ++ (5% ≤ ++ <25%) | ++ (5% ≤ ++ <25%) | + (LOQ ≤ + <5%) | ++ (5% ≤ ++ <25%) | ++ (5% ≤ ++ <25%) | + (LOQ ≤ + <5%) | + (LOQ ≤ + <5%) |
| Cc1cccc2c1[C@H]([C@H]1CCCN1)OCCC2 [Compound I-103, (R)-2-((R)-9-methyl-1,3,4,5-tetrahydrobenzo[c]oxepin-1-yl)pyrrolidine] | + (LOQ ≤ + <5%) | ++ (5% ≤ ++ <25%) | ++ (5% ≤ ++ <25%) | + (LOQ ≤ + <5%) | ++ (5% ≤ ++ <25%) | + (LOQ ≤ + <5%) | + (LOQ ≤ + <5%) | + (LOQ ≤ + <5%) | ++ (5% ≤ ++ <25%) | +++ (25% ≤ +++ <50%) |
| Cc1cccc2c1[C@@H]([C@H]1CCCN1)OCCC2 [Compound I-104, (R)-2-((S)-9-methyl-1,3,4,5-tetrahydrobenzo[c]oxepin-1-yl)pyrrolidine] | + (LOQ ≤ + <5%) | +++ (25% ≤ +++ <50%) | ++ (5% ≤ ++ <25%) | + (LOQ ≤ + <5%) | ++ (5% ≤ ++ <25%) | + (LOQ ≤ + <5%) | + (LOQ ≤ + <5%) | + (LOQ ≤ + <5%) | ++ (5% ≤ ++ <25%) | ++ (5% ≤ ++ <25%) |
| Fc1cccc2c1[C@H]([C@@H]1CCCN1)OCCC2 [Compound I-105, (S)-2-((R)-9-fluoro-1,3,4,5-tetrahydrobenzo[c]oxepin-1-yl)pyrrolidine] | + (LOQ ≤ + <5%) | ++ (5% ≤ ++ <25%) | +++ (25% ≤ +++ <50%) | ++ (5% ≤ ++ <25%) | ++ (5% ≤ ++ <25%) | + (LOQ ≤ + <5%) | + (LOQ ≤ + <5%) | ++ (5% ≤ ++ <25%) | ++ (5% ≤ ++ <25%) | ++++ (50% ≤ ++++) |
| Fc1ccc2c(c1)[C@@H]([C@@H]1CCCN1)OCCC2 [Compound I-106, (S)-2-((S)-8-fluoro-1,3,4,5-tetrahydrobenzo[c]oxepin-1-yl)pyrrolidine] | + (LOQ ≤ + <5%) | ++ (5% ≤ ++ <25%) | ++ (5% ≤ ++ <25%) | +++ (25% ≤ +++ <50%) | + (LOQ ≤ + <5%) | + (LOQ ≤ + <5%) | + (LOQ ≤ + <5%) | ++ (5% ≤ ++ <25%) | + (LOQ ≤ + <5%) | + (LOQ ≤ + <5%) |
| Fc1ccc2c(c1)[C@H]([C@@H]1CCCN1)OCCC2 [Compound I-107, (S)-2-((R)-8-fluoro-1,3,4,5-tetrahydrobenzo[c]oxepin-1-yl)pyrrolidine] | + (LOQ ≤ + <5%) | ++ (5% ≤ ++ <25%) | +++ (25% ≤ +++ <50%) | ++ (5% ≤ ++ <25%) | ++ (5% ≤ ++ <25%) | + (LOQ ≤ + <5%) | ++ (5% ≤ ++ <25%) | +++ (25% ≤ +++ <50%) | ++ (5% ≤ ++ <25%) | ++ (5% ≤ ++ <25%) |
| Fc1ccc2c(c1)[C@@H]([C@H]1CCCN1)OCCC2 [Compound I-108, (R)-2-((S)-8-fluoro-1,3,4,5-tetrahydrobenzo[c]oxepin-1-yl)pyrrolidine] | + (LOQ ≤ + <5%) | ++ (5% ≤ ++ <25%) | ++ (5% ≤ ++ <25%) | ++ (5% ≤ ++ <25%) | ++ (5% ≤ ++ <25%) | + (LOQ ≤ + <5%) | + (LOQ ≤ + <5%) | +++ (25% ≤ +++ <50%) | ++ (5% ≤ ++ <25%) | ++ (5% ≤ ++ <25%) |
| Fc1ccc2c(c1)[C@H]([C@H]1CCCN1)OCCC2 [Compound I-109, (R)-2-((R)-8-fluoro-1,3,4,5-tetrahydrobenzo[c]oxepin-1-yl)pyrrolidine] | + (LOQ ≤ + <5%) | ++ (5% ≤ ++ <25%) | ++ (5% ≤ ++ <25%) | + (LOQ ≤ + <5%) | +++ (25% ≤ +++ <50%) | + (LOQ ≤ + <5%) | ++ (5% ≤ ++ <25%) | ++ (5% ≤ ++ <25%) | ++ (5% ≤ ++ <25%) | ++ (5% ≤ ++ <25%) |
| Fc1ccc2c(c1)CCCO[C@@H]2[C@@H]1CCCN1 [Compound I-110, (S)-2-((S)-7-fluoro-1,3,4,5-tetrahydrobenzo[c]oxepin-1-yl)pyrrolidine] | + (LOQ ≤ + <5%) | ++ (5% ≤ ++ <25%) | ++ (5% ≤ ++ <25%) | ++ (5% ≤ ++ <25%) | ++ (5% ≤ ++ <25%) | + (LOQ ≤ + <5%) | + (LOQ ≤ + <5%) | ++++ (50% ≤ ++++) | ++ (5% ≤ ++ <25%) | +++ (25% ≤ +++ <50%) |

same assay, conditions: i.p. 15 min before behavioral test, most efficacious dose(s) of 3 doses

| SMILES | XG: anxiogenic (probability that behavioral signature matches class) |
| --- | --- |
| c1ccc2c(c1)CCCO[C@H]2[C@H]1CCCN1 [Compound I-100, (R)-2-((R)-1,3,4,5-tetrahydrobenzo[c]oxepin-1-yl)pyrrolidine] | + (LOQ ≤ + <5%) |
| Cc1cccc2c1[C@@H]([C@@H]1CCCN1)OCCC2 [Compound I-101, (S)-2-((S)-9-methyl-1,3,4,5-tetrahydrobenzo[c]oxepin-1-yl)pyrrolidine] | + (LOQ ≤ + <5%) |
| Cc1cccc2c1[C@H]([C@@H]1CCCN1)OCCC2 [Compound I-102, (S)-2-((R)-9-methyl-1,3,4,5-tetrahydrobenzo[c]oxepin-1-yl)pyrrolidine] | + (LOQ ≤ + <5%) |
| Cc1cccc2c1[C@H]([C@H]1CCCN1)OCCC2 [Compound I-103, (R)-2-((R)-9-methyl-1,3,4,5-tetrahydrobenzo[c]oxepin-1-yl)pyrrolidine] | + (LOQ ≤ + <5%) |
| Cc1cccc2c1[C@@H]([C@H]1CCCN1)OCCC2 [Compound I-104, (R)-2-((S)-9-methyl-1,3,4,5-tetrahydrobenzo[c]oxepin-1-yl)pyrrolidine] | + (LOQ ≤ + <5%) |
| Fc1cccc2c1[C@H]([C@@H]1CCCN1)OCCC2 [Compound I-105, (S)-2-((R)-9-fluoro-1,3,4,5-tetrahydrobenzo[c]oxepin-1-yl)pyrrolidine] | + (LOQ ≤ + <5%) |
| Fc1ccc2c(c1)[C@@H]([C@@H]1CCCN1)OCCC2 [Compound I-106, (S)-2-((S)-8-fluoro-1,3,4,5-tetrahydrobenzo[c]oxepin-1-yl)pyrrolidine] | + (LOQ ≤ + <5%) |
| Fc1ccc2c(c1)[C@H]([C@@H]1CCCN1)OCCC2 [Compound I-107, (S)-2-((R)-8-fluoro-1,3,4,5-tetrahydrobenzo[c]oxepin-1-yl)pyrrolidine] | + (LOQ ≤ + <5%) |
| Fc1ccc2c(c1)[C@@H]([C@H]1CCCN1)OCCC2 [Compound I-108, (R)-2-((S)-8-fluoro-1,3,4,5-tetrahydrobenzo[c]oxepin-1-yl)pyrrolidine] | + (LOQ ≤ + <5%) |
| Fc1ccc2c(c1)[C@H]([C@H]1CCCN1)OCCC2 [Compound I-109, (R)-2-((R)-8-fluoro-1,3,4,5-tetrahydrobenzo[c]oxepin-1-yl)pyrrolidine] | + (LOQ ≤ + <5%) |
| Fc1ccc2c(c1)CCCO[C@@H]2[C@@H]1CCCN1 [Compound I-110, (S)-2-((S)-7-fluoro-1,3,4,5-tetrahydrobenzo[c]oxepin-1-yl)pyrrolidine] | + (LOQ ≤ + <5%) |
